Biological target: T1, Dopamine beta hydroxylase (Homo sapiens, UniProt P09172)
T1 construct: 125 μl of plasma; tissue Instituto Português do Sangue Transplantação; host or cells: human plasma from healthy donors
T1 sequence (P09172 40-617 limits assumed): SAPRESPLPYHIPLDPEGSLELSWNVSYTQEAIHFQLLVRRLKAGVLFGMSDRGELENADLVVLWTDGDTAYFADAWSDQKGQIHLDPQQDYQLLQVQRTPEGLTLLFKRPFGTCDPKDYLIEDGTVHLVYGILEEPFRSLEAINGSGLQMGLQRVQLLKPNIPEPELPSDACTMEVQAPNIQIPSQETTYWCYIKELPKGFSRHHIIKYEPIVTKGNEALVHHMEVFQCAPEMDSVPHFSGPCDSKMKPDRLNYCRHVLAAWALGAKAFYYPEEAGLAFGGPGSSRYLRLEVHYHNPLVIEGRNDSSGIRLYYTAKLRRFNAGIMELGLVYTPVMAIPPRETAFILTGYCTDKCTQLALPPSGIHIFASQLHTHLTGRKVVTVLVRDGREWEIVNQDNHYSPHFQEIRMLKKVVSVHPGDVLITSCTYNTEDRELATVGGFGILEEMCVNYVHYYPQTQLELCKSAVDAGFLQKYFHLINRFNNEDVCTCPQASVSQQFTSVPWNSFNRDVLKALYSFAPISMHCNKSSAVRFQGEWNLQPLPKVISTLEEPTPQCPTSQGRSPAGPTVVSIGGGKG
Experiment: Dopamine beta hydroxylase activity in human plasma
Format: biochemical
Details: for Plasma (0.1 μM), activity in % of control: inhibitor 0.1 μM; for Plasma (1 μM), activity in % of control: inhibitor 1 μM
Summary of the method: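 Healthy-donor human plasma pre-incubated 10 min at 37° C with compound at final 10, 100 or 1000 nM in pH 5.0 acetate buffer with ascorbate, fumarate, pargyline, N-ethylmaleimide, catalase and copper sulfate. Tyramine substrate then added for 45 min; octopamine formed was isolated by SCX cartridge, periodate-converted and read at 330 nm; activity given as % control.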

Structure (SMILES)	Plasma (0.1 μM), activity in % of control	Plasma (1 μM), activity in % of control
O=C(Cc1[nH]c(=S)n2c1C[C@H](c1c(F)c(F)cc(F)c1F)C2)N1CCC2(CC1)OCCO2 [Example 87, (R)-1-(1,4-dioxa-8-azaspiro[4.5]decan-8-yl)-2-(6-(2,3,5,6-tetrafluorophenyl)-3-thioxo-2,5,6,7-tetrahydro-3H-pyrrolo[1,2-c]imidazol-1-yl)ethan-1-one]	62.8 % of control	13.8 % of control
CC(C)NC(=O)Cc1[nH]c(=S)n2c1C[C@@H](c1c(F)ccc(Cl)c1F)C2 [Example 88, (S)-2-(6-(3-chloro-2,6-difluorophenyl)-3-thioxo-2,5,6,7-tetrahydro-3H-pyrrolo[1,2-c]imidazol-1-yl)-N-isopropylacetamide]	44.1 % of control	6.1 % of control
O=C(Cc1[nH]c(=S)n2c1C[C@@H](c1c(F)ccc(Cl)c1F)C2)NCCCN1CCOCC1 [Example 89, (S)-2-(6-(3-chloro-2,6-difluorophenyl)-3-thioxo-2,5,6,7-tetrahydro-3H-pyrrolo[1,2-c]imidazol-1-yl)-N-(3-morpholinopropyl)acetamide]	4.3 % of control	0 % of control
O=C(Cc1[nH]c(=S)n2c1C[C@@H](c1c(F)ccc(Br)c1F)C2)N[C@@H]1CCOC1 [Example 90, 2-((S)-6-(3-bromo-2,6-difluorophenyl)-3-thioxo-2,5,6,7-tetrahydro-3H-pyrrolo[1,2-c]imidazol-1-yl)-N—((R)-tetrahydrofuran-3-yl)acetamide]	9.9 % of control	0.4 % of control
CN1CCN(C(=O)Cc2[nH]c(=S)n3c2C[C@@H](c2c(F)ccc(Br)c2F)C3)CC1 [Example 91, (S)-2-(6-(3-bromo-2,6-difluorophenyl)-3-thioxo-2,5,6,7-tetrahydro-3H-pyrrolo[1,2-c]imidazol-1-yl)-1-(4-methylpiperazin-1-yl)ethan-1-one]	19.0 % of control	0 % of control
CCCCN(C)C(=O)Cc1[nH]c(=S)n2c1C[C@@H](c1c(F)ccc(Br)c1F)C2 [Example 92, (S)-2-(6-(3-bromo-2,6-difluorophenyl)-3-thioxo-2,5,6,7-tetrahydro-3H-pyrrolo[1,2-c]imidazol-1-yl)-N-butyl-N-methylacetamide]	37.5 % of control	0.1 % of control
O=C(Cc1[nH]c(=S)n2c1C[C@@H](c1c(F)ccc(Br)c1F)C2)NCCO [Example 93, (S)-2-(6-(3-bromo-2,6-difluorophenyl)-3-thioxo-2,5,6,7-tetrahydro-3H-pyrrolo[1,2-c]imidazol-1-yl)-N-(2-hydroxyethyl)acetamide]	32.1 % of control	1.0 % of control
O=C(Cc1[nH]c(=S)n2c1C[C@@H](c1c(F)ccc(Br)c1F)C2)NC1CC1 [Example 94, (S)-2-(6-(3-bromo-2,6-difluorophenyl)-3-thioxo-2,5,6,7-tetrahydro-3H-pyrrolo[1,2-c]imidazol-1-yl)-N-cyclopropylacetamide]	47.5 % of control	0.8 % of control
O=C(Cc1[nH]c(=S)n2c1C[C@@H](c1c(F)ccc(Br)c1F)C2)NCC1CC1 [Example 95, (S)-2-(6-(3-bromo-2,6-difluorophenyl)-3-thioxo-2,5,6,7-tetrahydro-3H-pyrrolo[1,2-c]imidazol-1-yl)-N-(cyclopropylmethyl)acetamide]	24.0 % of control	0 % of control
NC(=O)Cc1[nH]c(=S)n2c1C[C@@H](c1c(F)ccc(Br)c1F)C2 [Example 96, (S)-2-(6-(3-bromo-2,6-difluorophenyl)-3-thioxo-2,5,6,7-tetrahydro-3H-pyrrolo[1,2-c]imidazol-1-yl)acetamide]	22.4 % of control	0.8 % of control
CCCNC(=O)Cc1[nH]c(=S)n2c1C[C@@H](c1c(F)ccc(Br)c1F)C2 [Example 97, (S)-2-(6-(3-bromo-2,6-difluorophenyl)-3-thioxo-2,5,6,7-tetrahydro-3H-pyrrolo[1,2-c]imidazol-1-yl)-N-propylacetamide]	22.7 % of control	0.5 % of control
O=C(Cc1[nH]c(=S)n2c1C[C@H](c1c(F)c(F)cc(F)c1F)C2)N1CCC[C@H]1CO [Example 98, 1-((S)-2-(hydroxymethyl)pyrrolidin-1-yl)-2-((R)-6-(2,3,5,6-tetrafluorophenyl)-3-thioxo-2,5,6,7-tetrahydro-3H-pyrrolo[1,2-c]imidazol-1-yl)ethan-1-one]	53.1 % of control	11.7 % of control
O=C(Cc1[nH]c(=S)n2c1C[C@@H](c1c(F)c(F)cc(F)c1F)C2)NC1CCC1 [Example 99, (S)—N-cyclobutyl-2-(6-(2,3,5,6-tetrafluorophenyl)-3-thioxo-2,5,6,7-tetrahydro-3H-pyrrolo[1,2-c]imidazol-1-yl)acetamide]	55.7 % of control	10.3 % of control
O=C(Cc1[nH]c(=S)n2c1C[C@@H](c1c(F)ccc(Br)c1F)C2)N1CCC[C@H]1CO [Example 100, 2-((S)-6-(3-bromo-2,6-difluorophenyl)-3-thioxo-2,5,6,7-tetrahydro-3H-pyrrolo[1,2-c]imidazol-1-yl)-1-((S)-2-(hydroxymethyl)pyrrolidin-1-yl)ethan-1-one]	26.2 % of control	2.1 % of control
O=C(Cc1[nH]c(=S)n2c1C[C@@H](c1c(F)ccc(Br)c1F)C2)N1CCCC1 [Example 101, (S)-2-(6-(3-bromo-2,6-difluorophenyl)-3-thioxo-2,5,6,7-tetrahydro-3H-pyrrolo[1,2-c]imidazol-1-yl)-1-(pyrrolidin-1-yl)ethan-1-one]	37.2 % of control	3.3 % of control
O=C(Cc1[nH]c(=S)n2c1C[C@@H](c1c(F)ccc(Br)c1F)C2)NC1CCC1 [Example 102, (S)-2-(6-(3-bromo-2,6-difluorophenyl)-3-thioxo-2,5,6,7-tetrahydro-3H-pyrrolo[1,2-c]imidazol-1-yl)-N-cyclobutylacetamide]	20.3 % of control	1.7 % of control
COCCNC(=O)Cc1[nH]c(=S)n2c1C[C@@H](c1c(F)ccc(Br)c1F)C2 [Example 103, (S)-2-(6-(3-bromo-2,6-difluorophenyl)-3-thioxo-2,5,6,7-tetrahydro-3H-pyrrolo[1,2-c]imidazol-1-yl)-N-(2-methoxyethyl)acetamide]	21.6 % of control	1.8 % of control
O=C(Cc1[nH]c(=S)n2c1C[C@H](c1c(F)c(F)cc(F)c1F)C2)N1CCCC1 [Example 104, (R)-1-(pyrrolidin-1-yl)-2-(6-(2,3,5,6-tetrafluorophenyl)-3-thioxo-2,5,6,7-tetrahydro-3H-pyrrolo[1,2-c]imidazol-1-yl)ethan-1-one]	67.9 % of control	19.5 % of control
O=C(Cc1[nH]c(=S)n2c1C[C@@H](c1c(F)c(F)cc(F)c1F)C2)N1CCCC1 [Example 105, (S)-1-(pyrrolidin-1-yl)-2-(6-(2,3,5,6-tetrafluorophenyl)-3-thioxo-2,5,6,7-tetrahydro-3H-pyrrolo[1,2-c]imidazol-1-yl)ethan-1-one]	74.9 % of control	22.0 % of control
Cl.O=C(Cc1[nH]c(=S)n2c1C[C@@H](c1c(F)ccc(Cl)c1F)C2)NCCc1ccccn1 [Example 106, (S)-2-(6-(3-chloro-2,6-difluorophenyl)-3-thioxo-2,5,6,7-tetrahydro-3H-pyrrolo[1,2-c]imidazol-1-yl)-N-(2-(pyridin-2-yl)ethyl)acetamide hydrochloride]	33.9 % of control	4.1 % of control
COCCNC(=O)Cc1[nH]c(=S)n2c1C[C@@H](c1c(F)ccc(Cl)c1F)C2 [Example 107, (S)-2-(6-(3-chloro-2,6-difluorophenyl)-3-thioxo-2,5,6,7-tetrahydro-3H-pyrrolo[1,2-c]imidazol-1-yl)-N-(2-methoxyethyl)acetamide]	40.1 % of control	6.3 % of control
NC(=O)Cc1[nH]c(=S)n2c1C[C@@H](c1c(F)ccc(Cl)c1F)C2 [Example 108, (S)-2-(6-(3-chloro-2,6-difluorophenyl)-3-thioxo-2,5,6,7-tetrahydro-3H-pyrrolo[1,2-c]imidazol-1-yl)acetamide]	46.9 % of control	5.3 % of control

Source: patent US11434242B2, “Dopamine-b-hydroxylase inhibitors” (BIAL-PORTELA & Cª, S.A., priority 2017, dated 2022)
